AC50 data for 94 compounds are collected here from PubChem BioAssay AID463229 (Broad Institute, 2010).

Values joined by “and” are separate entries in the source; they are usually repeats but may differ in a detail not shown here. Identical values can stand only once. Active and inactive are the calls of the source.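 The calls were made as follows: active = compounds raising the signal whose fitted half-maximal concentration is at or below their top tested dose (cut at about 25 µM in these data); inconclusive = flat fit at 30 to 70% activity, or a poor fit; inactive = the rest.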

Broadly, the AC50 is the concentration at which the activity in the assay is half-maximal.

For this test, the system named is INS-1E rat beta cells, no cytokines, CellTiter-Glo ATP, 48 h. Nature of the test: ATP level change in INS-1E without cytokines, dose response, counter-screen for beta-cell apoptosis protection project, INS-1E rat cells, ATP luminescence, cherry pick (AID 463229). Background: A counterscreen serves to expose hits that act by an unwanted route or on another target.
`Cc1ccc(Cl)cc1NC1=C/C(=N\S(=O)(=O)c2cccs2)c2ccccc2C1=O`: the AC50 was 4.61 µM. The same measure for `C(=N\Nc1nncc2ccccc12)/c1ccccn1`: 4.47 µM. On to `Clc1ccc(C(Cn2ccnc2)OCc2csc3c(Cl)cccc23)c(Cl)c1` (centres undefined), for which the AC50 was 14.6 µM. To `CCC1(OC(=O)CN)C(=O)OCc2c1cc1n(c2=O)Cc2cc3ccccc3nc2-1` (centres undefined) belongs < 0.195 µM. To `Cc1ccc(C)c(S(=O)(=O)N2CCN(c3ncnc4sccc34)CC2)c1` belongs 4.53 µM; to `O=C(CCC(=O)Nc1ccc(Br)cc1)N/N=C/c1ccccc1O`, 14.6 µM; to `COc1ccc(-c2ccc([C@H]3[C@@H]4C=CCC[C@@]4(C)C(=O)N3Cc3ccccc3)c(F)c2)cc1`, 22.5 µM.

Take `Cc1cccc(Nc2nc(N)c([N+](=O)[O-])c(N3CC(C)CC(C)C3)n2)c1` (centres undefined): the AC50 is 14.8 µM. To `O=[N+]([O-])c1cccc2c(N3CCCC3)ccnc12` belongs 7.28 µM; to `Cc1csc2ncnc(NCCc3ccccn3)c12`, 6.88 µM; to `COc1cc(OC)c2cc(C(=O)N/N=C/c3cccc(OC)c3O)[nH]c2c1`, 15.5 µM. To `CC1CN(S(=O)(=O)c2ccc(C(=O)NCCCn3ccnc3)cc2)CC(C)O1` (centres undefined) belongs 1.39 µM; to `Cc1nn(C)c(C)c1CN(C)S(=O)(=O)c1ccc2ccccc2c1`, 3.02 µM; to `Cc1ccc(C(=O)Nc2nc(-c3ccccn3)cs2)s1`, 6.66 µM. The same measure for `COc1ccc(-c2csc(NC(=O)C3CCN(c4ncnc5sc(C)c(C)c45)CC3)n2)cc1OC`: 4.88 µM; for `CC(C)c1ccccc1-n1c(SCC(=O)N2CCc3ccccc3C2)nc2ccccc2c1=O`: 2.42 µM; for `Cc1ccccc1OCC(O)CNC1CCC(NCC(O)COc2ccccc2C)CC1` (centres undefined): 6.66 µM.

Turning to `CCOc1ccc(-n2c(-c3ccccc3)c[n+]3c2CCC3)cc1`, the AC50 was 1.53 µM.

Regarding `O=S(=O)(Nc1cc(Sc2cccc3cccnc23)c(O)c2ccccc12)c1ccc(F)cc1`, the AC50 is 3.9 µM. To `Cc1ccc2c(c1)c(/C=C/c1cc[n+](C)cc1)c(C)n2C` belongs 3.97 µM; to `Cc1ccc(-c2c[n+]3c(n2-c2ccccc2)SCC3)cc1`, 2.63 µM; to `Cc1cccc(NC(=O)c2ccc([N+](=O)[O-])s2)c1C`, 26.1 µM. Take `Cc1ccc(OCCN2CCN(c3ncnc4sc(C)c(C)c34)CC2)cc1`: the AC50 was 4.03 µM.

As for `Cc1[nH]c2ccccc2c1CN1CCC(Cc2ccccc2)CC1`, the AC50 was 3.99 µM.

For `O=C(N/N=C/c1c(O)ccc2ccccc12)c1[nH]ncc1Br`, the AC50 is 2.16 µM. For the compound `Cc1onc(-c2ccccc2)c1C(=O)NC(=S)NNC(=O)c1ccccc1O`, the AC50 was 18.4 µM. To `Oc1ccc(-c2n[nH]c(C(F)(F)F)c2-c2ccccc2)c(O)c1` belongs 5.86 µM.

In the case of `CN(C)S(=O)(=O)c1cccc(CSCc2cccc(S(=O)(=O)N(C)C)c2)c1`, the AC50 is 7.78 µM. The same measure for `O=c1[nH]c(=O)n(Cc2ccco2)c2c1C(C(F)(F)F)(C(F)(F)F)N=C(c1ccc(F)cc1)N2`: 1.39 µM; for `Cc1cc(Nc2cccc(Cl)c2)nc(NCc2ccccc2)n1`: 6.46 µM; for `CC(C)CN(C(=O)COC(=O)C12CC3CC(CC(C3)C1)C2)c1c(N)n(Cc2ccccc2)c(=O)[nH]c1=O`: 3.89 µM. For `Cc1ccc(-c2nn(-c3ccccc3)cc2/C=C/C(=O)Nc2cccc(S(N)(=O)=O)c2)cc1`, the AC50 was 2.75 µM. Take `Cc1ccc(-c2cc(-c3ccccc3)cc(-c3ccccc3)[n+]2-c2ccccc2)cc1`: the AC50 is 2.08 µM. Turning to `C/C(=N\NC(=O)Cc1ccc(Cl)cc1)c1ccccn1`, the half-maximal activity concentration (AC50) is 4.89 µM. As to `Brc1ccccc1CN1CCN(Cc2c[nH]c3ccccc23)CC1`, the AC50 was 2.76 µM.

`Cc1occc1C(=O)N/N=C/c1c(O)ccc2ccccc12`: the AC50 was 7.95 µM. Regarding `COc1cc(NC(=O)COc2cc(O)c3c(c2)OC(C)(C)CC3=O)cc(OC)c1OC`, the AC50 was 6.45 µM. The same measure for `Cc1ccc(-c2cn(-c3ccccc3)c3[n+]2CCCS3)cc1`: 1.97 µM and 2.98 µM.

`CC(C)CC[n+]1ccn(C2=C([O-])c3ccccc3C(=O)/C2=N\S(=O)(=O)c2ccccc2)c1`: the AC50 was 22.9 µM.

In the case of `COc1ccc(CNc2ncnc3sccc23)cc1`, the AC50 was 11.3 µM. Regarding `FC(F)(F)c1ccc(CN2C[C@@H]3C(c4ccc(C(F)(F)F)cc4)C4(c5cccnc5)CC3(C4)[C@H]2c2ccccc2)cc1` (some centres undefined), the AC50 is 5.15 µM.

Take `CN(C)C1=NC[C@H](Cc2ccccc2)N1CCCC1CCCCC1`: the AC50 was 13.6 µM. As for `Oc1cccc2ccc(Nc3ccccn3)nc12`, the AC50 was 2.27 µM.

Take `COc1ccc(O)c(/C=N/Nc2nc(Nc3ccccc3)nc(-n3nc(C)cc3C)n2)c1`: the AC50 was 11.3 µM. The same measure for `C=C1C(=O)C=C2CN(C(=O)c3ccccc3)[C@@](Cc3ccc(F)cc3)(C(=O)OC)[C@@H]12`: 2.56 µM. Turning to `Cc1cc(-c2n[nH]c(=S)n2/N=C/C(Br)=C/c2ccccc2)n[nH]1`, the AC50 was 15.6 µM. To `CC(C)(C)C(=O)Nc1ccc(C(=O)N/N=C/c2ccccc2OC(=O)c2ccc(Cl)cc2)cc1` belongs 11.8 µM; to `O=c1cc(N2CCN(c3cccc(Cl)c3)CC2)[nH]c(=O)n1C1CCCCC1`, 1.66 µM. To `CCCNC1=C(N(C(C)=O)c2cccc(F)c2)C(=O)c2ccccc2C1=O` belongs 3.06 µM; to `Cc1nnsc1C(=O)N/N=C/c1ccc2ccccc2c1O`, 1.81 µM; to `Cc1ccc(Sc2cc(C)nc(-c3ccccn3)n2)cc1`, > 26 µM (inactive).

Take `CN1/C(=C\C=N\NC(=O)c2ccc(O)cc2)C(C)(C)c2ccccc21`: the AC50 is 7.5 µM.

Regarding `Cc1cc(C)c2nc(NNC(=O)c3ccc(S(=O)(=O)N4CC(C)CC(C)C4)cc3)sc2c1` (centres undefined), the AC50 is 4.75 µM. `Nc1c(C(=O)Nc2ccc(S(=O)(=O)N3CCCC3)cc2)sc2nc3cc4c(cc3cc12)CCC4`: the AC50 is 4.63 µM. The same measure for `O=C(Nc1ccc(Cl)cc1)Nc1nnc(CSCc2ccc(Cl)cc2)s1`: 6.74 µM. In the case of `c1ccc2c(CN3CCCCCC3)c[nH]c2c1`, the AC50 is 3.61 µM.

`C=CCCc1ccc(C#N)c(SCc2c(C(=O)OCC)c3cc(OC(C)=O)c(Br)cc3n2C)n1`: the AC50 is 1.07 µM. To `O=[N+]([O-])/C=C/c1ccc2c(ccn2Cc2ccccc2)c1` belongs 7.72 µM; to `Nc1nc(-c2ccccn2)nc(N)c1Cc1c(F)cccc1Cl`, 8.86 µM; to `CCCCn1c(NS(=O)(=O)c2ccccc2)c(S(=O)(=O)c2ccc(C)cc2)c2nc3ccccc3nc21`, 22.1 µM. To `Cc1cccc2cc(-c3ccccc3)c(-c3ccccc3)c[n+]12` belongs 4.21 µM. To `CCN1CCN(c2ccc(S(=O)(=O)N3CCCCC3)cc2NC(=O)c2ccc([N+](=O)[O-])o2)CC1` belongs 8.1 µM; to `c1ccc(CN2CCN(Cc3c[nH]c4ccccc34)CC2)cc1`, 7.83 µM; to `O=C(NCc1cccnc1)c1ccc(-c2cc3ccccc3oc2=O)cc1`, 5.35 µM. For `Cc1nc2ccccc2n1-c1nc(-c2ccco2)cc(C(F)(F)F)n1`, the AC50 is 1.86 µM.

On to `COc1ccc(-c2c([C@H]3[C@H]4C=CC[C@@H](C)[C@@H]4C(=O)N3Cc3ccccc3)ccc3ccccc23)cc1`, for which the AC50 was 7.67 µM. As for `CC(C)c1cccc(C(C)C)c1OC(=O)[C@H]1OC(C(C)(C)C)=C[C@@H]1c1ccccc1`, the half-maximal activity concentration (AC50) was 7.8 µM. The same measure for `O=C(N/N=C/c1sc(N2CCOCC2)nc1-c1ccccc1)c1cccc(S(=O)(=O)N2CCCC2)c1`: 2.25 µM; for `COc1ccc2c(c1)[nH]c1c(N3CCN(Cc4ccc5c(c4)OCO5)CC3)ncnc12`: 3.45 µM; for `COC(=O)c1ccccc1NC(=O)c1nc(S(=O)(=O)Cc2ccccc2)ncc1Cl`: 7.98 µM.

Turning to `CCCCCCCNC1=CC(=O)CC(c2ccccc2)C1` (centres undefined), the AC50 is 9.84 µM. To `CC(C)Cn1c(N)c(C(=O)CSc2ccc3c(c2)OCCO3)c(=O)n(C)c1=O` belongs 4.85 µM; to `CN1/C(=C\C(=S)NC(=O)c2cccc(Br)c2)C(C)(C)c2ccccc21`, 3.93 µM.

Take `Cc1ccc2oc(-c3ccc(NC(=O)c4cccnc4)cc3)nc2c1`: the AC50 is 19.1 µM. The same measure for `COc1ccc(-n2c(-c3ccc(Cl)cc3)c[n+]3c2CCc2ccccc2-3)cc1`: 1.78 µM. To `COc1cccc(/C=N/Nc2ncnc3scc(-c4ccccc4)c23)c1O` belongs 2.02 µM; to `O=C(NCc1ccccc1)C1=C[C@@H](c2csc3ccccc23)C[C@@H](OCc2ccc(CO)cc2)O1`, 5.16 µM. To `CC1CC(C)CN(S(=O)(=O)c2ccc(C(=O)NCCCn3ccnc3)cc2)C1` (centres undefined) belongs 0.577 µM; to `Fc1ccccc1N=C1NN=C(c2ccccc2)CS1`, 4.95 µM. As to `O=C(NCc1cccnc1)/C(=C\c1ccc(-c2cccc(Cl)c2)o1)S(=O)(=O)c1ccccc1`, the concentration at half-maximal activity (AC50) is 6.78 µM. Regarding `CCCNC(=O)c1ccc2c(=O)c(O)c(-c3ccc(Cl)c([N+](=O)[O-])c3)[nH]c2c1`, the AC50 was 10.8 µM. Turning to `Cc1ccc(-c2csc(N3CCC(NS(=O)(=O)c4ccc5c(c4)OCCO5)CC3)n2)cc1`, the AC50 was 6.85 µM.

Take `COc1cnc(-c2ccccn2)nc1Sc1ccc(C)cc1`: the AC50 was 17.2 µM. The same measure for `CCCC(=O)NC(c1ccccc1Cl)c1ccc2cccnc2c1O` (centres undefined): 2.13 µM; for `CCOC(=O)COc1ccc2ccccc2c1/C=C/[N+](=O)[O-]`: 10.6 µM; for `COc1cc(C(=O)N/N=C(\C)c2ccccn2)cc(OC)c1OC`: 10.6 µM.

In the case of `Oc1cc(-c2ccc(N3CCCCC3)nc2)cc2cccnc12`, the AC50 was 7.31 µM. In the case of `CCC1CCCCN1C(=O)c1cc(COc2ccc3ncccc3c2)on1` (centres undefined), the AC50 was 2.74 µM.

In the case of `COc1cccc(/C=N/Nc2nc(Nc3ccccc3)nc(-n3nc(C)cc3C)n2)c1O`, the AC50 was 12.3 µM. To `Nc1c(N(CCC2=CCCCC2)C(=O)COc2ccc(F)cc2)c(=O)[nH]c(=O)n1Cc1ccccc1` belongs 4.49 µM; to `COc1cccc(N2CCN(c3ncnc4c3[nH]c3ccc(F)cc34)CC2C)c1` (centres undefined), 3.09 µM. `COc1ccc(O)c(C(=O)c2cnc3nc4ccccc4n3c2)c1`: the AC50 was 6.33 µM. The same measure for `CCN(CC)c1ccc(/C=N/NC(=S)NCc2ccccc2)c(O)c1`: 12.3 µM; for `CCOC(=O)c1c(C)oc2c1C(=O)c1ccccc1C2=O`: 12.3 µM.
